Measured values as given in ChEMBL document CHEMBL4507303, “Data for DCP probe TP-004” (2021).

Biological target: Endothelin-1 receptor (Homo sapiens, UniProt P25101)
Test: Inhibition of [125I]-endothelin-1 binding to EDNRA; call rule not given here

Endothelin-1 receptor, sequence (P25101 whole entry): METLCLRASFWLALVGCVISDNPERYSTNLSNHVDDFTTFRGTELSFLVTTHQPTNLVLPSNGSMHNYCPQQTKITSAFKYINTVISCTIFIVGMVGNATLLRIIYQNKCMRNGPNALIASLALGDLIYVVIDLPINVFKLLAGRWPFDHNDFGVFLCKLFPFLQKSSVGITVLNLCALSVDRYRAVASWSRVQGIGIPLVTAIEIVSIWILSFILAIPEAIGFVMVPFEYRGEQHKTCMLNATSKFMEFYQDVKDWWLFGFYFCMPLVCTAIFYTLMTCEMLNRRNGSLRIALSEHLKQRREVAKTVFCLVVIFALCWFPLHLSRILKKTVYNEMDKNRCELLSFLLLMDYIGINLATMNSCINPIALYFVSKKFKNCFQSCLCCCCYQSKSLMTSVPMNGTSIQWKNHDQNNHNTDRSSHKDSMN

IC50: > 10 µM (not active)
Compound: FC(F)(F)c1cc(-c2ccccc2)c2nncn2c1 [TPn-004]
